Test system: HepaRG
Assay: LDH release cytotoxicity, % of total lysis control; higher = more cytotoxic
Details: 48 h
Outline: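 Percent cytotoxicity was scaled between on-plate vehicle and total lysis controls, then averaged over duplicate wells. The cells were single-lot HepaRG on collagen I-coated 96-well plates, exposed for 48 h to eight-point half-log test chemical series topping at 100 µM in serum-free induction medium with 0.5% DMSO. Total lysis wells got 0.1% Triton X, and LDH in 50 µL spent medium was read as resorufin fluorescence (CytoTox-ONE, Tecan Safire).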

Oc1ccc(C(c2ccc(O)cc2)C(Cl)(Cl)Cl)cc1 [2,2-Bis(4-hydroxyphenyl)-1,1,1-trichloroethane]
Details	LDH release cytotoxicity [%]
0.0320971 µM	1.05
0.1015 µM	0.207
0.320971 µM	0.656
1.015 µM	1.23
3.2097118 µM	0.563
10.15 µM	0.192
32.0971 µM	1.16
101.5 µM	2.4

CC(C)N(C(=O)COc1nnc(C(F)(F)F)s1)c1ccc(F)cc1 [Flufenacet]
Details	LDH release cytotoxicity [%]
0.03162 µM	-2.32
0.1 µM	-2.03
0.3162278 µM	-2.3
1 µM	-2.01
3.16228 µM	-2.29
10 µM	-1.38
31.6228 µM	0.458
100 µM	1.71

CN(C)C(=S)[S-].CN(C)C(=S)[S-].[Zn+2] [Ziram]
Details	LDH release cytotoxicity [%]
0.03162 µM	-1.6
0.1 µM	-1.5
0.3162278 µM	-1.92
1 µM	-1.52
3.16228 µM	-1.1
10 µM	-0.764
31.6228 µM	37.6
100 µM	46.8

CC(=O)C1(O)CCC2C3CCC4=CC(=O)CCC4(C)C3CCC21C (stereo not drawn) [17alpha-Hydroxyprogesterone]
Details	LDH release cytotoxicity [%]
0.03162 µM	-0.419
0.1 µM	-1.4
0.3162278 µM	-2.18
1 µM	-1.25
3.16228 µM	-0.766
10 µM	0.609
31.6228 µM	-0.397
100 µM	0.684

ClC1=C(Cl)C2(Cl)C3C(Cl)C=CC3C1(Cl)C2(Cl)Cl (stereo unspecified) [Heptachlor]
Details	LDH release cytotoxicity [%]
0.031623 µM	0.0329
0.1 µM	-3.41
0.316228 µM	-2.78
1 µM	-2.89
3.16228 µM	-2.85
10 µM	-1.78
31.6228 µM	-1.45
100 µM	-0.326

CC[C@H](C)[C@H]1O[C@]2(C=C[C@@H]1C)C[C@@H]1C[C@@H](C/C=C(\C)[C@@H](O[C@H]3C[C@H](OC)[C@@H](O[C@H]4C[C@H](OC)[C@@H](O)[C@H](C)O4)[C@H](C)O3)[C@@H](C)/C=C/C=C3\CO[C@@H]4[C@H](O)C(C)=C[C@@H](C(=O)O1)[C@]34O)O2.CO[C@H]1C[C@H](O[C@H]2[C@H](C)O[C@@H](O[C@@H]3/C(C)=C/C[C@@H]4C[C@@H](C[C@]5(C=C[C@H](C)[C@@H](C(C)C)O5)O4)OC(=O)[C@@H]4C=C(C)[C@@H](O)[C@H]5OC/C(=C\C=C\[C@@H]3C)[C@]54O)C[C@@H]2OC)O[C@@H](C)[C@@H]1O [Abamectin]
Details	LDH release cytotoxicity [%]
0.0191318 µM	-1.6
0.0605 µM	-0.607
0.191318 µM	-1.03
0.605 µM	-0.868
1.913178 µM	-1.21
6.05 µM	-1.13
19.1318 µM	12.3
60.5 µM	63.56

CCCc1ccccc1 [Propylbenzene]
Details	LDH release cytotoxicity [%]
0.03162 µM	0.0897
0.1 µM	0.202
0.3162278 µM	-0.202
1 µM	-0.857
3.16228 µM	0.305
10 µM	-0.0719
31.6228 µM	1.09
100 µM	0.766

OCC(CO)(CO)CO [Pentaerythritol]
Details	LDH release cytotoxicity [%]
0.03162 µM	-0.674
0.1 µM	-1.13
0.3162278 µM	-1.3
1 µM	-1.89
3.16228 µM	-0.206
10 µM	-1.15
31.6228 µM	-0.431
100 µM	0.764

CC(Oc1ccc(Cl)cc1Cl)C(=O)O (stereo unspecified) [Dichlorprop]
Details	LDH release cytotoxicity [%]
0.03162 µM	-0.461
0.1 µM	-0.49
0.3162278 µM	-0.517
1 µM	0.354
3.16228 µM	0.35
10 µM	0.358
31.6228 µM	0.57
100 µM	1.75

COc1cc(C(=O)NC2CCN(C)CC2)ccc1Nc1ncc2c(n1)N(C1CCCC1)CC(F)(F)C(=O)N2C
Details	LDH release cytotoxicity [%]
0.02941 µM	-0.558
0.093 µM	1.88
0.294092 µM	6.47
0.93 µM	10.3
2.9409182 µM	9.21
9.3 µM	12.6
29.4092 µM	88.1
93 µM	90.9

COC(=O)C1C2CC3c4[nH]c5cc(OC)ccc5c4CCN3CC2CC(OC(=O)c2cc(OC)c(OC)c(OC)c2)C1OC (stereo unspecified) [Reserpine]
Details	LDH release cytotoxicity [%]
0.0267212 µM	-2.17
0.0845 µM	-2.63
0.267213 µM	-1.99
0.845 µM	-3.03
2.67212 µM	-1.69
8.45 µM	-1.52
26.7212 µM	10.5
84.5 µM	46.8

COC(=O)N(OC)c1ccccc1COc1ccn(-c2ccc(Cl)cc2)n1 [Pyraclostrobin]
Details	LDH release cytotoxicity [%]
0.03162 µM	-1.44
0.1 µM	-1.43
0.3162278 µM	-1.17
1 µM	-2.24
3.16228 µM	-1.81
10 µM	-0.283
31.6228 µM	6.12
100 µM	56.9

CCCCOC(=O)C(C)Oc1ccc(Oc2ccc(C(F)(F)F)cn2)cc1 (stereo unspecified) [Fluazifop-butyl]
Details	LDH release cytotoxicity [%]
0.03162 µM	-0.307
0.1 µM	-0.771
0.3162278 µM	-0.631
1 µM	-0.375
3.16228 µM	-0.996
10 µM	0.207
31.6228 µM	0.479
100 µM	1.84

O=C(O)C(F)(F)C(F)(F)C(F)(F)C(F)(F)C(F)(F)F [Perfluorohexanoic acid]
Details	LDH release cytotoxicity [%]
0.03162 µM	-0.915
0.1 µM	-0.436
0.3162278 µM	-1.48
1 µM	-1.3
3.16228 µM	-1.58
10 µM	-0.342
31.6228 µM	-0.769
100 µM	0.349

CC(C)NC(=O)N1CC(=O)N(c2cc(Cl)cc(Cl)c2)C1=O [Iprodione]
Details	LDH release cytotoxicity [%]
0.03162 µM	-0.45
0.1 µM	-1.34
0.3162278 µM	-0.949
1 µM	-1.27
3.16228 µM	-1.29
10 µM	-0.662
31.6228 µM	1.78
100 µM	4.73

CCCOCC(=Nc1ccc(Cl)cc1C(F)(F)F)n1ccnc1 [Triflumizole]
Details	LDH release cytotoxicity [%]
0.03162 µM	-0.709
0.1 µM	-1.15
0.3162278 µM	-0.687
1 µM	-0.497
3.16228 µM	-0.543
10 µM	-0.414
31.6228 µM	-0.332
100 µM	0.335

CN(C)C(=O)Cl [Dimethylcarbamoyl chloride]
Details	LDH release cytotoxicity [%]
0.03162 µM	-1.3
0.1 µM	-0.716
0.3162278 µM	-0.579
1 µM	-0.789
3.16228 µM	-0.264
10 µM	-0.4
31.6228 µM	-0.611
100 µM	0.647

Source: the supplement of paper PMC7840683
